Results as given in paper PMC3877906, “Polypeptide Modulators of TRPV1 Produce Analgesia without Hyperthermia” (Marine Drugs, 2013).

Key:
CD-1 mice [1] = test: core body temperature (rectal measuring); format: in vivo, mouse; settings: for core body temperature, in words: rectal measuring, mice, vs saline
Experimental: Admittedly, hyperthermia is considered a critical side effect of TRPV1 antagonists, so we assessed the effect of the polypeptides on body temperature. Polypeptides were administered intravenously at doses 0.1 mg/kg and 0.5 mg/kg, and rectal temperature was monitored (Figure 5a,b).
(§1) All experiments were performed in accordance with the recommendations in the “Principles of Laboratory Animal Care” and after approval by the Animal Care and Use Committee of the Branch of the IBCh RAS (Pushchino, Russia). Adult male CD-1 mice (Animal Breeding Facility Branch of Shemyakin-Ovchinnikov Institute of Bioorganic Chemistry, Russian Academy of Sciences, Pushchino, Russia) weighing 20–25 g were used. Animals were allowed to acclimate in the laboratory for at least five days. Mice were housed at room temperature (23 ± 2 °C) on a 12 h light–dark cycle with food and water available ad libitum. Polypeptides or vehicle was administered intravenously 15 min before testing.
(§2) The significance of the data was determined by analysis of variance (ANOVA) followed by Tukey’s test. Data are presented as mean ± S.E.
The MLT1404 Rectal Temperature Probe and Chart Power Lab (ADInstruments Inc., Colorado Springs, CO, USA) was used to record body temperature. During recording, the animals were placed in a MLA5018 Rodent Restrainer (ADInstruments Inc., Colorado Springs, CO, USA). The adaptation period was 20 min. Core body temperature was recorded every minute for 20 min before and 100 min after test compound administration. AMG9810 was dissolved in DMSO and was injected intraperitoneally.

TRPV1 [2] = format: cell-based, rat
Experimental: Figure 2 Effects of APHC3 on recombinant TRPV1 expressed in HEK-293 cells. (a) Resting current recorded from a TRPV1-positive cell held at −30 mV. […] Straight lines above the recording indicate application of APHC3 (Long line) and capsaicin (Short lines). The cells were stimulated and rinsed by rapid switching of the bath solution between the control solution and solutions containing the indicated compound. (b) Capsaicin responses in control and in the presence of the 300 nM APHC3 peptide. In each case, the control response was calculated as an average of two acid responses recorded just prior to peptide application. Averaged responses recorded in the presence of APHC3 were normalized to averaged control responses. Those are presented as the mean ± s.d. (n = 4). […] (c, d) Cell responses to the acidification of the bath solution from pH 7.4 to pH 5.5 in control and in the presence of the APHC3 applied at different concentrations as indicated. The experimental traces in (c) and in (d, upper trace) illustrate representative responses of EGFP/TRPV1-positive cells. The bottom trace in (d) represents responses of an EGFP/TRPV1-negative cell assayed simultaneously. (e) Acid responses recorded in the presence of APHC3 (90, 160 and 240 nM) normalized to a control response. The data are presented as the mean ± s.d. (n = 5–10). […] In each case, the control response was calculated as an average of the two acid responses recorded just prior to peptide application. The average of the two acid responses recorded after peptide application was calculated and normalized to the control response. Experimental traces in (c, d) were obtained from three different cells. The changes in bath solution pH (continuous lines) and APHC3 applications (thick straight lines) are shown above the fluorescence traces. Cells were stimulated and rinsed by a rapid replacement of the control bath solution with modified bath solution at pH 5.5 with or without APHC3.
(§3) HEK-293 cells were cultured in Dulbecco’s modified Eagle’s medium (DMEM) (Life Technologies, Grand Island, NY, USA) containing 10% (vol/vol) fetal bovine serum (Thermo Fisher Scientific, Palm Beach, FL, USA), glutamine (1%) and the antibiotic gentamicin (100 μg/mL) (Life Technologies, Grand Island, NY, USA). The pIRES2-EGFP plasmid harboring rat TRPV1 cDNA was transiently transfected into HEK-293 cells by replacing the growth medium in each well with a transfection mixture, containing 1.6 μg of DNA and 4 μL of Lipofectamine (Life Technologies, Grand Island, NY, USA) in 1 mL of serum-free DMEM. After incubating for 6 h, the transfection mixture was replaced with normal culture medium. Cells were assayed within 48–96 h after transfection.
Ion currents were recorded using an Axopatch 200A amplifier, with a DigiData 1322A interface, and pClamp8 software (Molecular Devices, Downingtown, PA, USA). External solutions were delivered by a gravity-driven perfusion system at a rate of 0.1 mL/s. Generally, the whole-cell patch clamp approach was used with recording pipettes containing (mM): 140 CsCl, 1 MgATP, 10 BAPTA, 10 HEPES-CsOH (pH 7.2). The basic bath solution included the following (mM): 140 NaCl, 5 KCl, 1 MgCl2, 1 CaCl2, 10 HEPES-NaOH (pH 7.4).

[3] = stated as background; cited from earlier work
Excerpt: TRPV1 participates in thermoregulation, and almost all its known agonists and antagonists change core body temperature. […] The influence of antagonists on core body temperature is more complex. Antagonists that interact with the intracellular capsaicin-binding pocket of TRPV1 elicit a hyperthermic effect if they are able to inhibit pH-induced TRPV1 currents.

TRPV1 [4] = test: Ca^2+ imaging, capsaicin responses of TRPV1-positive HEK-293 cells; format: cell-based, rat; settings: 100 nM
Experimental: as §3
All recordings were performed at room temperature.

CD-1 mice [5] = test: hot plate test; format: in vivo, mouse; settings: 0.1 and 1 mg/kg; 55 °C
Experimental: The hot plate test is a most simple for TRPV1 inhibitor characterization since TRPV1 play significant role in temperature sensation. Effect of APHC1 and APHC3 on thermal nociception at dose 0.1 mg/kg after intramuscular, intraperitoneal and intravenous administration was measured before. […] Here we assessed changes in thermal nociception to a noxious thermal stimuli elicited by different doses of APHC1 and APHC3 to determine minimal effective dose. […] Both polypeptides reached maximal effect at 0.1 mg/kg.
as §1, §2
Sensitivity to a thermal stimulus was determined by hind paw withdrawal or licking latency using a Hot-Plate Analgesia Meter (Columbus Instruments, Columbus, OH, USA) at 55 °C.

[6] = biological target: Transient receptor potential vanilloid 1 receptor (TRPV1) (rat) (UniProt O35433)
Chain of UniProt O35433 (O35433 whole entry): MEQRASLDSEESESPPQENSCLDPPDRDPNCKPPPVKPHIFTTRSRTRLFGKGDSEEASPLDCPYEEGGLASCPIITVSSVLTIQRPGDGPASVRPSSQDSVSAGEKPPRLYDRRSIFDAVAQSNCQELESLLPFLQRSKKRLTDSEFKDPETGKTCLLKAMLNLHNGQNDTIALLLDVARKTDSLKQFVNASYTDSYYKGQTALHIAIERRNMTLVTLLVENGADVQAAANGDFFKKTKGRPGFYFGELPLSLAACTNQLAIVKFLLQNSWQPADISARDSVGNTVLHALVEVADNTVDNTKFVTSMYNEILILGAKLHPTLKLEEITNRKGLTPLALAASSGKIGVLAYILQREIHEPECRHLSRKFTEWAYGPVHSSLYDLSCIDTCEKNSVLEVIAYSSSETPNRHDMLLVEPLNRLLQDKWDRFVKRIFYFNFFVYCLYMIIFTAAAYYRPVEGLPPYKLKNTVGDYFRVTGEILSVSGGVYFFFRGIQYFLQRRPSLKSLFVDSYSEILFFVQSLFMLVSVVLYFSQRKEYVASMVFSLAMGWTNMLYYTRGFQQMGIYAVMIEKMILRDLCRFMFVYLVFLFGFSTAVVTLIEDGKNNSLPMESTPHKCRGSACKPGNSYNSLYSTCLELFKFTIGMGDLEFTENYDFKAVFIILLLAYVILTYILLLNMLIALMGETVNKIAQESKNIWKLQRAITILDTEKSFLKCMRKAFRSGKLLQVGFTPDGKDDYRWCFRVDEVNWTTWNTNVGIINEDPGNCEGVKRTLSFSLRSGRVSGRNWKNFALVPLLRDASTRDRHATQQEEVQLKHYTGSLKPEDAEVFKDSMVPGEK

mice = settings: ref [22],[23]; cited from earlier work
Excerpt: (§4) Several polypeptide modulators of TRPV1 that interact with the extracellular part of the receptor have been reported. […] The structural homology of APHCs to these proteins is minimal so both polypeptides presented structural distinct class of TRPV1 inhibitors.

TRPV1 [7] = settings: ref [22],[23]; cited from earlier work
Excerpt: as §4

Molecule: CC(C)(C)c1ccc(/C=C/C(=O)Nc2ccc3c(c2)OCCO3)cc1 [AMG9810, reference compound]
- increase in body temperature (CD-1 mice [1]; 30 mg/kg i.p., vehicle 10% DMSO, significant, n = 7): 1.6 °C
- core body temperature, in words (CD-1 mice [1]): produced hyperthermic effect

Molecule: COc1cc(CNC(=O)CCCC/C=C/C(C)C)ccc1O [capsaicin]
- capsaicin-elicited currents (TRPV1 [2]): elicited strong inward currents in all examined TRPV1-positive cells
- body temperature [3]: significant decrease in body temperature
- capsaicin-elicited Ca^2+ responses (TRPV1 [4]): elicited marked Ca^2+ responses

Molecule: aprotinin [reference compound]
- increase in core body temperature (CD-1 mice [1]; 0.1 mg/kg, not statistically significant vs saline, n = 7): 0.4–0.5 °C
- core body temperature, in words (CD-1 mice [1]): did not change or modestly increase core body temperature
- behavioral response to thermal stimuli (CD-1 mice [5]): did not change behavioral response to thermal stimuli

B1: APHC3 (peptide)
chain: GSICLEPKVVGPCTAYFPRFYFNSETGKCTPFIYGGCEGNGNNFETLRACRGICRA
- inhibition of capsaicin (100 nM)-induced inward currents by 300 nM APHC3, whole-cell patch clamp on TRPV1-positive HEK-293 cells (n = 4) [6]: 25%

B2: DkTx: spider's polypeptide that activates TRPV1 (protein, UniProt P0CH43 1-79, looked up)
Tau-theraphotoxin-Hs1a: DCAKEGEVCSWGKKCCDLDNFYCPMEFIPHCKKYKPYVPVTTNCAKEGEVCGWGSKCCHGLDCPLAFIPYCEKYRGRND
- pain response when injected in mice (mice): mediate the pain response
- effect on TRPV1 in vitro (TRPV1 [7]): activate TRPV1 in vitro
